Assay [1] has as its system IL-1β release from THP-1 cells. Briefly: IL-1β Release Assay (PMA-differentiated THP-1 cells, LPS + nigericin). The assay is classed as cell-based. The settings on record: Homo sapiens, 250 ng/mL LPS, 20 μM nigericin. The method, then: Approximately 1.5 million THP-1 cells were plated in each well of a 6-well TC plate and incubated with 40 nM PMA in RPMI (10% FBS, 1% Penstrep) for 24 hours. The media was then removed and cells were rested in RPMI (10% FBS, 1% Penstrep) for 24 hours after which time the media was removed and cells were pre-treated for 2 hours with various concentrations of compounds of interest (typically serial 3-fold dilution in RPMI+5% FBS, concentrations ranging from 1 μM to 0.5 nM) in RPMI (5% FBS). The media was again removed and cells were incubated with 250 ng/mL LPS and compounds of interest (concentrations as above) in RMPI (5% FBS) for 2 hours. The media was removed for a last time and cells were incubated with 20 μM nigericin and compounds of interest (concentrations as above) in Opti-MEM for 30 minutes. Cell media was then collected and the amount of cleaved IL-1β was determined using a JESS instrument (Protein Simple) and standard protocols. Cleaved Il-1β antibody was obtained from Cell Signaling (catalogue #83186S) and was used at 1:20 dilution in antibody diluent 2. Protein Simple 1× anti-Rabbit HRP secondary antibody was used along with Protein Simple luminol and peroxide for chemiluminescent detection. Primary antibody incubation time was increased from 30 minutes to 60 minutes.

Assay [2] deals with full-length recombinant human NEK7 (Homo sapiens (Human), UniProt Q8TDX7). As to the kind of experiment: NEK7 Enzymatic Assay ([33P]-ATP, casein substrate). The class given is biochemical. The method, then: Casein substrate (from bovine milk, hydrolyzed and partially dephosphorylated mixture of α, β and a caseins, obtained from Sigma Aldrich, catalogue #C4765, diluted in distilled water to a final concentration of 1 mg/mL) and full-length recombinant human NEK7 (expressed by baculovirus in Sf9 insect cells using a N-terminal GST tag, obtained from SignalChem, catalogue #N09-10G, 0.1 μg/μL) were mixed in assay buffer (20 mM Hepes pH 7.5, 10 mM MgCl2, 1 mM EGTA, 0.02% Brij35, 0.02 mg/ml BSA, 0.1 mM Na3VO4, 2 mM DTT, 1% DMSO). Compounds of interest (serial 3-fold dilution in DMSO from 10 μM to 0.5 nM) or vehicle (1% DMSO) were dispensed into the kinase reaction mixture by Acoustic technology (Echo550; nanoliter range). After incubation at room temperature for 20 minutes, the kinase reaction was initiated by addition of [^33P]-ATP (specific activity […]) and the mixture was incubated at room temperature for 2 hours. The reaction was then stopped by spotting the reaction mixture on strips of phosphocellulose P81 paper. Following washing, the radioactivity of the P81 paper was measured and kinase activity data were expressed as the percent remaining kinase activity in test samples compared to vehicle reactions. IC50 values and curve fits were obtained using Prism (GraphPad Software).

Where only a bound is given, the exact number is not on record here.

Chain of full-length recombinant human NEK7 (Q8TDX7 whole entry): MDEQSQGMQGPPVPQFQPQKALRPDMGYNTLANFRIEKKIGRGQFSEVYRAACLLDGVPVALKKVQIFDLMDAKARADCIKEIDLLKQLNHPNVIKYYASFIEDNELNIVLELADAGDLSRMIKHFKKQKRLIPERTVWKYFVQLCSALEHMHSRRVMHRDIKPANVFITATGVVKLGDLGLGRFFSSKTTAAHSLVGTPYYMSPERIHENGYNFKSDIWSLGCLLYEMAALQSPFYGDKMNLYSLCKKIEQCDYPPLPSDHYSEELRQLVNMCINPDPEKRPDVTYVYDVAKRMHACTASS

As for `Nc1ncnc2c1c(-c1ccc(NC(=O)Nc3cc(C4(C(F)(F)F)CC4)no3)c(F)c1)cn2C1CC(O)C1` (centres unmarked) [Example 39, 1-(4-(4-amino-7-(3-hydroxycyclobutyl)-7H-pyrrolo[2,3-d]pyrimidin-5-yl)-2-fluorophenyl)-3-(3-(1-(trifluoromethyl)cyclopropyl)isoxazol-5-yl)urea], the IC50 in assay [1] and in assay [2] was below 150 nM throughout.

In the case of `CC(C)(F)c1cc(NC(=O)Nc2ccc(-c3cn(C4CC4)c4ncnc(N)c34)cc2F)on1` [Example 9, 1-(4-(4-amino-7-cyclopropyl-7H-pyrrolo[2,3-d]pyrimidin-5-yl)-2-fluorophenyl)-3-(3-(2-fluoropropan-2-yl)isoxazol-5-yl)urea], the IC50 in assay [1] was 151 to 300 nM; in assay [2] it was below 150 nM.

In the case of `Nc1ncnc2c1c(-c1ccc(NC(=O)Nc3cc(C4(C(F)(F)F)CC4)on3)c(F)c1)cn2C1CC1` [Example 10, 1-(4-(4-amino-7-cyclopropyl-7H-pyrrolo[2,3-d]pyrimidin-5-yl)-2-fluorophenyl)-3-(5-(1-(trifluoromethyl)cyclopropyl)isoxazol-3-yl)urea], the IC50 is below 150 nM in assay [1] and 151 to 300 nM in assay [2].

Take `CC(C)(O)Cn1cc(-c2ccc(NC(=O)Nc3cc(C4(C(F)(F)F)CC4)no3)c(F)c2)c2c(N)ncnc21` [Example 14, 1-(4-(4-amino-7-(2-hydroxy-2-methylpropyl)-7H-pyrrolo[2,3-d]pyrimidin-5-yl)-2-fluorophenyl)-3-(3-(1-(trifluoromethyl)cyclopropyl)isoxazol-5-yl)urea]: the concentration for half-maximal inhibition (IC50) was below 150 nM in assay [1] and 151 to 300 nM in assay [2].

With `CC(C)(C)c1cc(NC(=O)Nc2ccc(-c3cn(C4CC4)c4ncnc(N)c34)cn2)on1` [Example 3, 1-(5-(4-amino-7-cyclopropyl-7H-pyrrolo[2,3-d]pyrimidin-5-yl)pyridin-2-yl)-3-(3-(tert-butyl)isoxazol-5-yl)urea], the IC50 is 151 to 300 nM in assay [1] and below 150 nM in assay [2].

Take `Nc1ncnc2c1c(-c1ccc(NC(=O)Nc3cc(C4(C(F)(F)F)CC4)no3)nc1)cn2C1CC1` [Example 37, 1-(5-(4-amino-7-cyclopropyl-7H-pyrrolo[2,3-d]pyrimidin-5-yl)pyridin-2-yl)-3-(3-(1-(trifluoromethyl)cyclopropyl)isoxazol-5-yl)urea]: the IC50 in assay [1] and in assay [2] was below 150 nM throughout.

As for `CC(C)(C#N)c1cc(NC(=O)Nc2ccc(-c3cn(C4CC4)c4ncnc(N)c34)cc2F)on1` [Example 35, 1-(4-(4-amino-7-cyclopropyl-7H-pyrrolo[2,3-d]pyrimidin-5-yl)-2-fluorophenyl)-3-(3-(2-cyanopropan-2-yl)isoxazol-5-yl)urea], the half-maximal inhibitory concentration (IC50) in assay [1] and in assay [2] was 151 to 300 nM each time.

For the compound `CC(C)(C)c1cc(NC(=O)NC2CC=C(c3cn(C4CC4)c4ncnc(N)c34)CC2)on1` (centres unmarked) [Example 15, 1-(4-(4-amino-7-cyclopropyl-7H-pyrrolo[2,3-d]pyrimidin-5-yl)cyclohex-3-en-1-yl)-3-(3-(tert-butyl)isoxazol-5-yl)urea], the values for the IC50 in assay [1] and in assay [2] were above 1000 nM and above 1500 nM, respectively.

Regarding `CC(C)(C)c1cc(NC(=O)Nc2ccc(-c3cn(C4CC4)c4ncnc(N)c34)cc2F)on1` [Example 2, 1-(4-(4-amino-7-cyclopropyl-7H-pyrrolo[2,3-d]pyrimidin-5-yl)-2-fluorophenyl)-3-(3-(tert-butyl)isoxazol-5-yl)urea], the IC50 in assay [1] and in assay [2] was below 150 nM throughout.

As to `Cc1cc(-c2cn(C3CC3)c3ncnc(N)c23)ccc1NC(=O)Nc1cc(C2(C(F)(F)F)CC2)no1` [Example 38, 1-(4-(4-amino-7-cyclopropyl-7H-pyrrolo[2,3-d]pyrimidin-5-yl)-2-methylphenyl)-3-(3-(1-(trifluoromethyl)cyclopropyl)isoxazol-5-yl)urea], the IC50 in assay [1] lay within 301 to 500 nM; in assay [2], 501 to 1500 nM.
